Activity calls are given as the source filed them. No cut-off for these calls is given here.
How the values were obtained:
MDA-MB-231 [1] = assay: Cytotoxicity against human MDA-MB-231 cells assessed as growth level at 10 uM after 48 hrs by SRB assay; type: functional
NCI-H460 = assay: Cytotoxicity against human NCI-H460 cells assessed as growth inhibition at 10 uM after 48 hrs by SRB assay; type: functional; details: NCI-H460, 48 h, read-out: GI
[2] = Cytotoxicity against human HOP62 cells assessed as growth level at 10 uM after 48 hrs by SRB assay; type: functional, HOP-62
HT-29 [3] = assay: Cytotoxicity against human HT-29 cells assessed as growth inhibition at 10 uM after 48 hrs by SRB assay; type: functional; details: HT-29, 48 h, read-out: GI
A549 [4] = assay: Cytotoxicity against human A549 cells assessed as growth level at 10 uM after 48 hrs by SRB assay; type: functional
[5] = Cytotoxicity against human HL-60(TB) cells assessed as growth inhibition at 10 uM after 48 hrs by SRB assay; type: functional; details: HL-60, 48 h, read-out: GI
[6] = Cytotoxicity against human HOP92 cells assessed as growth level at 10 uM after 48 hrs by SRB assay; type: functional, HOP-92
[7] = Cytotoxicity against human SF539 cells assessed as growth inhibition at 10 uM after 48 hrs by SRB assay; type: functional; details: SF-539, 48 h, read-out: GI
[8] = Cytotoxicity against human OVCAR8 cells assessed as growth level at 10 uM after 48 hrs by SRB assay; type: functional, OVCAR-8
[9] = Cytotoxicity against human COLO205 cells assessed as growth level at 10 uM after 48 hrs by SRB assay; type: functional, COLO 205
A549 [10] = assay: Cytotoxicity against human A549 cells assessed as growth inhibition at 10 uM after 48 hrs by SRB assay; type: functional; details: A549, 48 h, read-out: GI
ACHN = assay: Cytotoxicity against human ACHN cells assessed as growth level at 10 uM after 48 hrs by SRB assay; type: functional
T47D [11] = assay: Cytotoxicity against human T47D cells assessed as growth inhibition at 10 uM after 48 hrs by SRB assay; type: functional; details: read-out: GI
[12] = Cytotoxicity against human SNB75 cells assessed as growth inhibition at 10 uM after 48 hrs by SRB assay; type: functional; details: SNB-75, 48 h, read-out: GI
MDA-MB-231 [13] = assay: Cytotoxicity against human MDA-MB-231 cells assessed as growth inhibition at 10 uM after 48 hrs by SRB assay; type: functional
NCI-H23 = assay: Cytotoxicity against human NCI-H23 cells assessed as growth inhibition at 10 uM after 48 hrs by SRB assay; type: functional; details: NCI-H23, 48 h, read-out: GI
[14] = Cytotoxicity against human OVCAR4 cells assessed as growth inhibition at 10 uM after 48 hrs by SRB assay; type: functional; details: OVCAR-4, 48 h, read-out: GI
[15] = Cytotoxicity against human DU145 cells assessed as growth inhibition at 10 uM after 48 hrs by SRB assay; type: functional; details: DU-145, 48 h, read-out: GI
[16] = Cytotoxicity against human MOLT4 cells assessed as growth level at 10 uM after 48 hrs by SRB assay; type: functional, MOLT-4
EKVX [17] = assay: Cytotoxicity against human EKVX cells assessed as growth level at 10 uM after 48 hrs by SRB assay; type: functional
[18] = Cytotoxicity against human UO31 cells assessed as growth level at 10 uM after 48 hrs by SRB assay; type: functional, UO-31
[19] = Cytotoxicity against human SF268 cells assessed as growth inhibition at 10 uM after 48 hrs by SRB assay; type: functional; details: SF-268, 48 h, read-out: GI
[20] = Cytotoxicity against human HOP92 cells assessed as growth inhibition at 10 uM after 48 hrs by SRB assay; type: functional; details: HOP-92, 48 h, read-out: GI
T47D [21] = assay: Cytotoxicity against human T47D cells assessed as growth level at 10 uM after 48 hrs by SRB assay; type: functional
[22] = Cytotoxicity against human OVCAR3 cells assessed as growth inhibition at 10 uM after 48 hrs by SRB assay; type: functional; details: OVCAR-3, 48 h, read-out: GI
[23] = Cytotoxicity against human Caki1 cells assessed as growth level at 10 uM after 48 hrs by SRB assay; type: functional, CAKI-1
HT-29 [24] = assay: Cytotoxicity against human HT-29 cells assessed as growth level at 10 uM after 48 hrs by SRB assay; type: functional
[25] = Cytotoxicity against human HOP62 cells assessed as growth inhibition at 10 uM after 48 hrs by SRB assay; type: functional; details: HOP-62, 48 h, read-out: GI
SR [26] = assay: Cytotoxicity against human SR cells assessed as growth inhibition at 10 uM after 48 hrs by SRB assay; type: functional; details: read-out: GI
[27] = Cytotoxicity against human HCC2998 cells assessed as growth level at 10 uM after 48 hrs by SRB assay; type: functional, HCC 2998
SN12C = assay: Cytotoxicity against human SN12C cells assessed as growth inhibition at 10 uM after 48 hrs by SRB assay; type: functional; details: read-out: GI
[28] = Cytotoxicity against human Hs578T cells assessed as growth level at 10 uM after 48 hrs by SRB assay; type: functional, Hs-578T
[29] = Cytotoxicity against human UO31 cells assessed as growth inhibition at 10 uM after 48 hrs by SRB assay; type: functional; details: UO-31, 48 h, read-out: GI
[30] = Cytotoxicity against human NCI-ADR-RES cells assessed as growth inhibition at 10 uM after 48 hrs by SRB assay; type: functional; details: read-out: GI
[31] = Cytotoxicity against human Caki1 cells assessed as growth inhibition at 10 uM after 48 hrs by SRB assay; type: functional; details: CAKI-1, 48 h, read-out: GI
[32] = Cytotoxicity against human SNB19 cells assessed as growth level at 10 uM after 48 hrs by SRB assay; type: functional, SNB-19
[33] = Cytotoxicity against human PC3 cells assessed as growth level at 10 uM after 48 hrs by SRB assay; type: functional, PC-3
NCI-H322M = assay: Cytotoxicity against human NCI-H322M cells assessed as growth level at 10 uM after 48 hrs by SRB assay; type: functional
KM12 = assay: Cytotoxicity against human KM12 cells assessed as growth level at 10 uM after 48 hrs by SRB assay; type: functional
EKVX [34] = assay: Cytotoxicity against human EKVX cells assessed as growth inhibition at 10 uM after 48 hrs by SRB assay; type: functional
SK-MEL-5 [35] = assay: Cytotoxicity against human SK-MEL-5 cells assessed as growth inhibition at 10 uM after 48 hrs by SRB assay; type: functional; details: SK-MEL-5, 48 h, read-out: GI
SK-MEL-5 [36] = assay: Cytotoxicity against human SK-MEL-5 cells assessed as growth level at 10 uM after 48 hrs by SRB assay; type: functional
SR [37] = assay: Cytotoxicity against human SR cells assessed as growth level at 10 uM after 48 hrs by SRB assay; type: functional

C=C1CC[C@@H]2[C@](C)(COC(C)=O)[C@H](OC(C)=O)CC[C@@]2(C)[C@@H]1C/C=C1/C(=O)OC[C@H]1OC(C)=O
Activity (MDA-MB-231 [1]): 95.84% | inhibition of growth at 10 µM (NCI-H460): 1.96% | Activity [2]: 75.75% | inhibition of growth at 10 µM (HT-29 [3]): 39.4% | Activity (A549 [4]): 85.77% | inhibition of growth at 10 µM [5]: 20.9% | Activity [6]: 71.9% | inhibition of growth at 10 µM [7]: 91.5% | Activity [8]: 27.13% | Activity [9]: 22.03% | inhibition of growth at 10 µM (A549 [10]): 14.2% | Activity (ACHN): 19.55% | inhibition of growth at 10 µM (T47D [11]): 57.2% | inhibition of growth at 10 µM [12]: 55.1% | inhibition of growth at 10 µM (MDA-MB-231 [13]; MDA-MB-231, 48 h, read-out: GI): 4.16% | inhibition of growth at 10 µM (NCI-H23): 19.1% | inhibition of growth at 10 µM [14]: 33.5% | inhibition of growth at 10 µM [15]: 49.1% | Activity [16]: -6.05% | Activity (EKVX [17]): 102.98% | Activity [18]: 62.83% | inhibition of growth at 10 µM [19]: 12.9% | inhibition of growth at 10 µM [20]: 28.1% | Activity (T47D [21]): 42.77% | inhibition of growth at 10 µM [22]: 21.3% | Activity [23]: 81.51% | Activity (HT-29 [24]): -39.4% | inhibition of growth at 10 µM [25]: 24.2% | inhibition of growth at 10 µM (SR [26]): 94.4% | Activity [27]: 67.32% | inhibition of growth at 10 µM (SN12C): 66.6% | Activity [28]: 100.18% | inhibition of growth at 10 µM [29]: 37.2% | inhibition of growth at 10 µM [30]: 75% | inhibition of growth at 10 µM [31]: 18.5% | Activity [32]: 82.96% | Activity [33]: 88.46% | Activity (NCI-H322M): 101.35% | Activity (KM12): 52.83% | growth inhibition (GI) (EKVX [34]): inactive | inhibition of growth at 10 µM (SK-MEL-5 [35]): 43.8% | Activity (SK-MEL-5 [36]): 56.18% | Activity (SR [37]): 5.73%

C=C1CC[C@@H]2[C@](C)(CO)[C@H](O)CC[C@@]2(C)[C@@H]1C/C=C1/C(=O)OC[C@H]1O [ANDROGRAPHOLIDE]
Activity (MDA-MB-231 [1]): 106.75% | inhibition of growth at 10 µM (NCI-H460): 2.02% | Activity [2]: 96.27% | inhibition of growth at 10 µM (HT-29 [3]): 73% | Activity (A549 [4]): 87.82% | Activity [6]: 107.7% | inhibition of growth at 10 µM [7]: 16.6% | Activity [8]: 84.48% | Activity [9]: 94.9% | inhibition of growth at 10 µM (A549 [10]): 12.2% | Activity (ACHN): 89.75% | inhibition of growth at 10 µM (T47D [11]): 12.2% | inhibition of growth at 10 µM [12]: 38% | growth inhibition (GI) (MDA-MB-231 [13]): inactive | inhibition of growth at 10 µM (NCI-H23): 2.11% | inhibition of growth at 10 µM [14]: 17.1% | inhibition of growth at 10 µM [15]: 19.9% | Activity [16]: 98.11% | Activity (EKVX [17]): 104.75% | Activity [18]: 89.6% | inhibition of growth at 10 µM [19]: 2.34% | Activity (T47D [21]): 87.76% | inhibition of growth at 10 µM [22]: 40.8% | Activity [23]: 96.7% | Activity (HT-29 [24]): 27% | inhibition of growth at 10 µM [25]: 3.73% | inhibition of growth at 10 µM (SR [26]): 20.5% | Activity [27]: 114.39% | inhibition of growth at 10 µM (SN12C): 18.3% | Activity [28]: 110.33% | inhibition of growth at 10 µM [29]: 10.4% | inhibition of growth at 10 µM [30]: 16.5% | inhibition of growth at 10 µM [31]: 3.3% | Activity [32]: 88.03% | Activity [33]: 93.4% | Activity (NCI-H322M): 92.74% | Activity (KM12): 80.24% | growth inhibition (GI) (EKVX [34]): inactive | inhibition of growth at 10 µM (SK-MEL-5 [35]): 22.7% | Activity (SK-MEL-5 [36]): 77.27% | Activity (SR [37]): 79.53%

C=C1CC[C@@H]2[C@](C)(COC(C)=O)[C@H](OC(C)=O)CC[C@@]2(C)[C@@H]1CC(Sc1ccccc1)C1=CCOC1=O (mixture of isomers)
Activity (MDA-MB-231 [1]): 7.4% | Activity [2]: -18.21% | Activity (A549 [4]): 26.59% | Activity [6]: 24.5% | Activity [8]: 11.88% | Activity [9]: -68.06% | Activity (ACHN): -13.74% | Activity [16]: -3.93% | Activity (EKVX [17]): 57.74% | Activity [18]: 35.65% | Activity (T47D [21]): 7.94% | Activity [23]: 90.6% | Activity (HT-29 [24]): -39.29% | Activity [27]: 44.69% | Activity [28]: 54.23% | Activity [32]: 51.79% | Activity [33]: 36.43% | Activity (NCI-H322M): 67.11% | Activity (KM12): 18.58% | Activity (SK-MEL-5 [36]): 13.51% | Activity (SR [37]): 2.9%
